From patent publication US11306123B2, “Heterotandem bicyclic peptide complex” (BicycleTx Limited, priority 2019, dated 2022) come the findings set out here.

Data set [1] can be described thus: Pharmacokinetics in SD Rats. The class given is in vivo, rat. How it is done:
3. Pharmacokinetics of the Nectin-4/CD137 Heterotandem BCY11863 in SD Rats
Male SD Rats were dosed with the Nectin-4/CD137 heterotandem BCY11863 formulated in 25 mM Histidine HCl, 10% sucrose pH 7 by IV bolus, IV infusion (15 minutes) or subcutaneously. Serial bleeding (about 80 μL blood/time point) was performed via submandibular or saphenous vein at each time point. All blood samples were immediately transferred into prechilled microcentrifuge tubes containing 2 μL K2-EDTA (0.5M) as anti-coagulant and placed on wet ice. Blood samples were immediately processed for plasma by centrifugation at approximately 4° C., 3000 g. The precipitant including internal standard was immediately added into the plasma, mixed well and centrifuged at 12,000 rpm, 4° C. for 10 minutes. The supernatant was transferred into pre-labeled polypropylene microcentrifuge tubes, and then quick-frozen over dry ice. The samples were stored at […] or below as needed until analysis. 7.5 μL of the supernatant samples were directly injected for LC-MS/MS analysis using an Orbitrap Q Exactive in positive ion mode to determine the concentrations of analyte. Plasma concentration versus time data were analyzed by non-compartmental approaches using the Phoenix WinNonlin 6.3 software program. C0, CI, Vdss, T½, AUC(0-last), AUC(0-inf), MRT(0-last), MRT(0-inf) and graphs of plasma concentration versus time profile were reported.

The target in the next data set is T1, cyno CD137 (Macaca fascicularis, UniProt A9YYE7).
T1 construct: extracellular domain: SPR data
T1 sequence (A9YYE7 24-186): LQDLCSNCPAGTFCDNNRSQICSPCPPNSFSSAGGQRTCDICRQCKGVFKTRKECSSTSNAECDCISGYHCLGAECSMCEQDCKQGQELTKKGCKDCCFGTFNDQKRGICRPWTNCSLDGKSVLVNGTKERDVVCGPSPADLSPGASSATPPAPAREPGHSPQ
In words: SPR, biotinylated analogue captured on chip, binding to CD137 extracellular domain. (SPR reads the build-up and loss of mass on a sensor chip optically.)

The next data set has as its target T2, human CD137 (Homo sapiens, UniProt Q07011).
T2 construct: extracellular domain: SPR data
Described as above.

Data set [2] concerns 5484 full-length human plasma membrane proteins and secreted proteins expressed in HEK293 cells. In words: Retrogenix cell microarray off-target screening. The following applies: 1 μM test peptide. In kind it is binding. How it is done:
Retrogenix microarray screening: Retrogenix's cell microarray technology was used to screen for specific off-target binding interactions of a biotinylated BCY11863 known as BCY13582.
Under these conditions, the test peptide was screened for binding against human HEK293 cells, individually expressing 5484 full-length human plasma membrane proteins and secreted proteins.
Each primary hit was re-expressed, along with two control receptors (TGFBR2 and EGFR), and re-tested with 1 μM BCY13582 test peptide, 1 μM BCY13582 test peptide in the presence of 100 μM BCY11863, and other positive and negative control treatments (FIG. 4). […] These were untethered and tethered forms of Nectin-4, and CD137—the primary targets.

The mark [3] stands for this setting: in vivo, SD rat plasma, analyte after 100 mg/kg IV BCY11863.
Setting [4] is: in vivo, SD rat plasma, analyte after 100 mg/kg IV BCY11863, read-out: T1/2 (converted).

The structures appear in SMILES notation. Like-named read-outs stand apart in the source and are kept apart here.

T2 sequence (Q07011 24-186 limits assumed): as the sequence (A9YYE7 24-186) above, with L4P, S19N, K50R, I66T, S67P, Y69F, E75G, A149V counted along it

In general, AUC refers to concentration integrated over time. Higher therefore signals high exposure. As usually defined, the Cmax is the peak of the concentration-time curve. Turning to `CCCC[C@@H]1NC(=O)[C@H](Cc2ccc(O)cc2)NC(=O)[C@@H]2CCCN2C(=O)[C@H](CC(=O)O)NC(=O)[C@H](C)NC(=O)[C@H](Cc2ccccc2)NC(=O)[C@@H]2CSCCC(=O)N3CN(CN(C3)C(=O)CCSC[C@@H](C(=O)N[C@@H](C)C(N)=O)NC1=O)C(=O)CCSC[C@H](NC(C)=O)C(=O)N[C@@H](CC(C)(C)C)C(=O)N1CCC[C@H]1C(=O)N[C@@H](CCC(=O)O)C(=O)N[C@H](CCCCNC(=O)CCc1cn(CCOCCOCCOCCN(CCOCCOCCOCCC(=O)N[C@H]3CSCCC(=O)N4CN5CN(C4)C(=O)CCSC[C@H](NC(=O)[C@@H](CC(=O)O)NC(=O)[C@H](Cc4cccc6ccccc46)NC(=O)[C@@H]4CCCN4C3=O)C(=O)N[C@@H](CCSC)C(=O)N[C@@H](CCCCNC(=N)N)C(=O)N[C@@H](CC(=O)O)C(=O)N[C@@H](Cc3c[nH]c4ccccc34)C(=O)N[C@@H](CO)C(=O)N[C@@H]([C@@H](C)O)C(=O)N3CCC[C@H]3C(=O)N3C[C@H](O)C[C@H]3C(=O)N[C@@H](Cc3c[nH]c4ccccc34)C(=O)N[C@H](C(N)=O)CSCCC5=O)CCOCCOCCOCCn3cc(CCC(=O)NCCCC[C@H]4NC(=O)[C@H](CCC(=O)O)NC(=O)[C@@H]5CCCN5C(=O)[C@H](CC(C)(C)C)NC(=O)[C@@H](N)CSCCC(=O)N5CN6CN(C5)C(=O)CCSC[C@H](NC(=O)[C@H](Cc5ccc(O)cc5)NC(=O)[C@@H]5CCCN5C4=O)C(=O)N[C@@H](Cc4ccccc4)C(=O)N[C@@H](C)C(=O)N[C@@H](CC(=O)O)C(=O)N4CCC[C@H]4C(=O)N[C@@H](Cc4ccc(O)cc4)C(=O)N[C@@H](CCCC)C(=O)N[C@H](C(=O)N[C@@H](C)C(N)=O)CSCCC6=O)nn3)nn1)C(=O)N1CCC[C@H]1C(=O)N[C@@H](Cc1ccc(O)cc1)C(=O)N2` [BCY15155], in data set [1] (setting [3]), the AUC stood at 1300 ng·h/mL and the Cmax stood at 2.85 µg/mL. The half-life in data set [1] (setting [4]) was 3.1 h.

As usually defined, the Kd is the constant that tells how readily two partners part at equilibrium. Higher therefore signals weaker binding. Turning to `CCCC[C@@H]1NC(=O)[C@H](Cc2ccc(O)cc2)NC(=O)[C@@H]2CCCN2C(=O)[C@H](CC(=O)O)NC(=O)[C@H](C)NC(=O)[C@H](Cc2ccccc2)NC(=O)[C@@H]2CSCCC(=O)N3CN(CN(C3)C(=O)CCSC[C@@H](C(=O)N[C@@H](C)C(N)=O)NC1=O)C(=O)CCSC[C@H](NC(C)=O)C(=O)N[C@@H](CC(C)(C)C)C(=O)N1CCC[C@H]1C(=O)N[C@@H](CCC(=O)O)C(=O)N[C@H](CCCCNC(=O)CCc1cn(CCOCCOCCOCCN(CCOCCOCCOCCC(=O)N[C@H]3CSCCC(=O)N4CN5CN(C4)C(=O)CCSC[C@H](NC(=O)[C@@H](CC(=O)O)NC(=O)[C@H](Cc4cccc6ccccc46)NC(=O)[C@@H]4CCCN4C3=O)C(=O)N[C@@H](CCSC)C(=O)N[C@@H](CCCCNC(=N)N)C(=O)N[C@@H](CC(=O)O)C(=O)N[C@@H](Cc3c[nH]c4ccccc34)C(=O)N[C@@H](CO)C(=O)N[C@@H]([C@@H](C)O)C(=O)N3CCC[C@H]3C(=O)N3C[C@H](O)C[C@H]3C(=O)N[C@@H](Cc3c[nH]c4ccccc34)C(=O)N[C@H](C(N)=O)CSCCC5=O)CCOCCOCCOCCn3cc(CCC(=O)NCCCC[C@H]4NC(=O)[C@H](CCC(=O)O)NC(=O)[C@@H]5CCCN5C(=O)[C@H](CC(C)(C)C)NC(=O)[C@@H](NC(C)=O)CSCCC(=O)N5CN6CN(C5)C(=O)CCSC[C@H](NC(=O)[C@H](Cc5ccc(O)cc5)NC(=O)[C@@H]5CCCN5C4=O)C(=O)N[C@@H](Cc4ccccc4)C(=O)N[C@@H](C)C(=O)N[C@@H](CC(=O)O)C(=O)N4CCC[C@H]4C(=O)N[C@@H](Cc4ccc(O)cc4)C(=O)N[C@@H](CCCC)C(=O)N[C@H](C(=O)N[C@@H](CCCCNC(=O)CCOCCOCCOCCOCCOCCOCCOCCOCCOCCOCCOCCOCCNC(=O)CCCC[C@@H]4SC[C@@H]5NC(=O)N[C@@H]54)C(N)=O)CSCCC6=O)nn3)nn1)C(=O)N1CCC[C@H]1C(=O)N[C@@H](Cc1ccc(O)cc1)C(=O)N2` [BCY13582], the results for the Kd at cyno CD137 and on human CD137 were 4.23 nM and 8.4 ± 4.2 nM, respectively. In data set [2], the Specific off-target interactions entry is recorded as “No specific off-target interactions were identified”.

On to `CCCC[C@@H]1NC(=O)[C@H](Cc2ccc(O)cc2)NC(=O)[C@@H]2CCCN2C(=O)[C@H](CC(=O)O)NC(=O)[C@H](C)NC(=O)[C@H](Cc2ccccc2)NC(=O)[C@@H]2CSCCC(=O)N3CN(CN(C3)C(=O)CCSC[C@@H](C(=O)N[C@@H](C)C(N)=O)NC1=O)C(=O)CCSC[C@H](NC(C)=O)C(=O)N[C@@H](CC(C)(C)C)C(=O)N1CCC[C@H]1C(=O)N[C@@H](CCC(=O)O)C(=O)N[C@H](CCCCNC(=O)CCc1cn(CCOCCOCCOCCN(CCOCCOCCOCCC(=O)N[C@H]3CSCCC(=O)N4CN5CN(C4)C(=O)CCSC[C@H](NC(=O)[C@@H](CC(=O)O)NC(=O)[C@H](Cc4cccc6ccccc46)NC(=O)[C@@H]4CCCN4C3=O)C(=O)N[C@@H](CCSC)C(=O)N[C@@H](CCCCNC(=N)N)C(=O)N[C@@H](CC(=O)O)C(=O)N[C@@H](Cc3c[nH]c4ccccc34)C(=O)N[C@@H](CO)C(=O)N[C@@H]([C@@H](C)O)C(=O)N3CCC[C@H]3C(=O)N3C[C@H](O)C[C@H]3C(=O)N[C@@H](Cc3c[nH]c4ccccc34)C(=O)N[C@H](C(N)=O)CSCCC5=O)CCOCCOCCOCCn3cc(CCC(=O)NCCCC[C@H]4NC(=O)[C@H](CCC(=O)O)NC(=O)[C@@H]5CCCN5C(=O)[C@H](CC(C)(C)C)NC(=O)[C@@H](NC(C)=O)CSCCC(=O)N5CN6CN(C5)C(=O)CCSC[C@H](NC(=O)[C@H](Cc5ccc(O)cc5)NC(=O)[C@@H]5CCCN5C4=O)C(=O)N[C@@H](Cc4ccccc4)C(=O)N[C@@H](C)C(=O)N[C@@H](CC(=O)O)C(=O)N4CCC[C@H]4C(=O)N[C@@H](Cc4ccc(O)cc4)C(=O)N[C@@H](CCCC)C(=O)N[C@H](C(=O)N[C@@H](C)C(N)=O)CSCCC6=O)nn3)nn1)C(=O)N1CCC[C@H]1C(=O)N[C@@H](Cc1ccc(O)cc1)C(=O)N2` [BCY11863], for which, in data set [1] (SD rats, IV 100 mg/kg, first 24 h of the study), the “Conversion to BCY14602” value was “No significant conversion to BCY14602”. In addition, the “Fraction metabolized to BCY15155” value in data set [1] (SD rats, IV administration, 100 mg/kg) is reported as less than 1%. In data set [1] (setting [3]), this molecule returned an AUC of 130000 ng·h/mL. In addition, the Cmax in data set [1] (setting [3]) amounted to 280 µg/mL. The half-life was 5.4 h in data set [1] (setting [4]); 3.1 h in data set [1] (rat, in vivo, SD rats, 3.2 mg/kg IV Inf (15 min), read-out: T½ (converted)); 2.5 h in data set [1] (rat, in vivo, SD rats, 6.3 mg/kg Sc, read-out: T½ (converted)). Further, the clearance in data set [1] (in vivo, SD rat, 100 mg/kg IV BCY11863, read-out: Clp) came to 13 mL/min/kg.
